# Measurements published in BindingDB's records for doi:10.1021/jm2007062 (Tranzyme Pharma, 2011).
# Biological target: Growth hormone secretagogue receptor type 1 (Homo sapiens) (UniProt Q92847)
# Assay: Displacement of [125I-His9]-ghrelin from human GRLN receptor by radioligand binding assay
# Growth hormone secretagogue receptor type 1 (Homo sapiens), sequence (Q92847 whole entry, looked up): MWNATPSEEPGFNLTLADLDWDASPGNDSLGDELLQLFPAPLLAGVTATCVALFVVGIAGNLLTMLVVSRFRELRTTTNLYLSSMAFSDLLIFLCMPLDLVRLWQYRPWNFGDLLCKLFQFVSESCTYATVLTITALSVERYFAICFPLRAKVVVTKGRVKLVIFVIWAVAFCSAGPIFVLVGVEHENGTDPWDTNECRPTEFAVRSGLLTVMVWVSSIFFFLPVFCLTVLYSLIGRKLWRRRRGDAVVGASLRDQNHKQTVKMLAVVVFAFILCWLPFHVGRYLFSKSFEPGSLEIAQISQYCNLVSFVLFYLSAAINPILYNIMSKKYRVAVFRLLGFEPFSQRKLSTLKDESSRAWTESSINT
row,SMILES,Ki [µM]
1,CN1CC(=O)N[C@H](Cc2ccccc2)C(=O)NCCCc2ccccc2OCCN[C@@H](CCC(=O)O)C1=O,> 10
2,CCC[C@@H]1NCCOc2ccccc2CCCNC(=O)[C@@H](CCCN)NC(=O)CN(C)C1=O,> 10
3,CC[C@H](C)[C@@H]1NCCCCCCCNC(=O)[C@@H](Cc2ccccc2)NC(=O)[C@@H](C)N(C)C1=O,> 10
4,CN1CC(=O)N[C@H](Cc2ccccc2)C(=O)NCCCc2ccccc2OCCN[C@@H](CO)C1=O,> 10
5,CCC[C@@H]1NCCOc2ccccc2CCCNC(=O)[C@@H](CO)NC(=O)CN(C)C1=O,> 10
6,CCC[C@@H]1NCCOc2ccccc2CCCNC(=O)[C@@H](CCC(=O)O)NC(=O)CN(C)C1=O,> 10
